Experiments:
[1] = target: T1, recombinant human liver glycogen phosphorylase (Homo sapiens, UniProt P06737); test: Measuring liver glycogen phosphorylase activity (forward reaction system, NADPH absorbance at 340 nm); type: biochemical
T1 construct: made in house; host or cells: Sf9 insect cells (crude homogenate, diluted, used as the enzyme solution)
T1 sequence (P06737 1-847): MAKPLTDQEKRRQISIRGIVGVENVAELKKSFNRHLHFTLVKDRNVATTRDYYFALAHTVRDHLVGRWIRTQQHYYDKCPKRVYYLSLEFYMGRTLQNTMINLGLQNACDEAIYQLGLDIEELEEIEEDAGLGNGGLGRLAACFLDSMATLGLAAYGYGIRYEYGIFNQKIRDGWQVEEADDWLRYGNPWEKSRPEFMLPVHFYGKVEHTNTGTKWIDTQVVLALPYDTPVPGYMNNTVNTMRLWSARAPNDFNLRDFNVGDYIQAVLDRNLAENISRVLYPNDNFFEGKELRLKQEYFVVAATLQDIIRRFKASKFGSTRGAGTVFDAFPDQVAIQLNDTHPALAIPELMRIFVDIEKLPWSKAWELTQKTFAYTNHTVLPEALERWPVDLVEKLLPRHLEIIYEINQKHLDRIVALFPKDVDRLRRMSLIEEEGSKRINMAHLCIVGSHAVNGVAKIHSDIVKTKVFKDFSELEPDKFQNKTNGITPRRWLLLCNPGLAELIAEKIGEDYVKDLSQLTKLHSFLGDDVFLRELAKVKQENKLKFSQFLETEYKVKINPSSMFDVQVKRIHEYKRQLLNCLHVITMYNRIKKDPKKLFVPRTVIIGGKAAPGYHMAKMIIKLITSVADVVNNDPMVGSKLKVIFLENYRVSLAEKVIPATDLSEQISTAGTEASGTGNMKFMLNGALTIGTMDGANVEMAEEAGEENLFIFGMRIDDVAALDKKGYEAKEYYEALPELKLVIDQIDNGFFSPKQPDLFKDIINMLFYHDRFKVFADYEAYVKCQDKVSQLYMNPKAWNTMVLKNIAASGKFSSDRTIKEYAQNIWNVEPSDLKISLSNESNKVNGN
Method in brief: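 Sf9 homogenate expressing the enzyme, in pH 6.8 BES/EDTA, with glycogen and phosphate substrate plus glucose, coupled via phosphoglucomutase/G6PDH to NADPH formation. A340 change over 75 min at room temperature, blank-corrected; IC50 linearly interpolated between the two concentrations bracketing 50% inhibition versus 1% DMSO control.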

db/db mice = test: Measuring blood plasma glucose concentration in db/db mice (hypoglycemic effect); type: in vivo; parameters: key: ++: compounds exhibiting statistically significant hypoglycemic effect at a dose of 10 mg/kg or less; +: compounds exhibiting not significant but obvious hypoglycemic effect at a dose of 10 mg/kg; conditions: for vivo (hypoglycemic effect in db/db mice): db/db mice fasted 4 h, oral administration, plasma glucose 1 and 3 hours after administration, dose 10 mg/kg or less, Dunnett test vs solvent; for vivo (hypoglycemic effect): db/db mice, blood plasma glucose, dose of 10 mg/kg or less
Protocol: 2. Exemplary Test (2) Method for Measuring Blood Plasma Glucose Concentration
Using db/db mice representing an obesity type of diabetic model were used to examine the effect of compound (1) of the present invention on glucose concentrations in plasma. Plasma glucose concentrations of the db/db mice (9-18 weeks old) were measured, and the mice were divided into groups each of 5 or 8 mice such that there would be no difference in the average value of plasma glucose concentrations. After fasting for four hours, the example compound or the solvent (0.5% methylcellulose) was administered orally to the db/db mice, and plasma glucose concentrations were measured 1 and 3 hours after administration. The analysis of the hypoglycemic effect of the example compound was performed through a statistical test at every hour between the group receiving the solvent and the groups of example compound (Dunnett test).

[2] = enzyme inhibitory activity with respect to liver glycogen phosphorylase, class symbols
[3] = human liver glycogen phosphorylase, class symbol

SMILES: O=C(Nc1cc(C(=O)N(Cc2cccnc2)C2CCCCC2)n[nH]1)c1cc(F)c(F)cc1Cl [Example 1-91]
- IC50 [1, 2]: < 100 nM
- vivo (hypoglycemic effect in db/db mice) (db/db mice): +

SMILES: Cc1cnc(CNC(=O)c2cc(NC(=O)c3cc(F)c(F)cc3Cl)[nH]n2)cn1 [Example 5-35]
- IC50 [1, 2]: < 100 nM
- vivo (hypoglycemic effect in db/db mice) (db/db mice): +

SMILES: CN(C)c1ccc(CNC(=O)c2cc(NC(=O)c3cc(F)c(F)cc3Cl)[nH]n2)cc1 [Example 3-24]
- IC50 [1, 2]: < 100 nM
- vivo (hypoglycemic effect in db/db mice) (db/db mice): +

SMILES: COc1ccc(CNC(=O)c2cc(NC(=O)c3cc(F)c(F)cc3Cl)[nH]n2)cc1 [Example 1-68]
- IC50 [1, 2]: < 100 nM
- vivo (hypoglycemic effect in db/db mice) (db/db mice): +

SMILES: CCN(C(=O)c1cc(NC(=O)c2cc(F)c(F)cc2Cl)[nH]n1)c1ccccc1 [Example 3-11]
- IC50 [1, 2]: < 100 nM
- vivo (hypoglycemic effect in db/db mice) (db/db mice): +

SMILES: CCNC(=O)CN(C(=O)c1cc(NC(=O)c2cc(F)c(F)cc2Cl)[nH]n1)c1ccccc1 [Example 4-23]
- IC50 [1, 2]: < 100 nM
- vivo (hypoglycemic effect in db/db mice) (db/db mice): +

SMILES: CCOc1ccc(CNC(=O)c2cc(NC(=O)c3cc(F)c(F)cc3Cl)[nH]n2)cn1 [Example 1-37]
- IC50 [1, 2]: < 100 nM
- vivo (hypoglycemic effect in db/db mice) (db/db mice): +

SMILES: COc1ccc(CNC(=O)c2cc(NC(=O)c3cc(F)c(F)cc3C)[nH]n2)cn1 [Example 5-2]
- IC50 [1, 2]: < 100 nM
- vivo (hypoglycemic effect in db/db mice) (db/db mice): +

SMILES: O=C(Nc1cc(C(=O)N(Cc2ccccc2)c2ccccc2)n[nH]1)c1cc(F)c(F)cc1Cl [Example 4-9]
- IC50 [1, 2]: < 100 nM
- vivo (hypoglycemic effect in db/db mice) (db/db mice): +

SMILES: CCCN(Cc1ccc(N(C)C)nc1)C(=O)c1cc(NC(=O)c2cc(F)c(F)cc2Cl)[nH]n1 [Example 1-130]
- IC50 [1, 2]: < 100 nM
- vivo (hypoglycemic effect in db/db mice) (db/db mice): +

SMILES: CCCN(CCOC)C(=O)c1cc(NC(=O)c2cc(F)c(F)cc2Cl)[nH]n1 [Example 1-95]
- IC50 [1, 2]: < 100 nM
- vivo (hypoglycemic effect in db/db mice) (db/db mice): +

SMILES: CC(OC(=O)OC1CCCCC1)OC(=O)c1ccc(N(C)C(=O)c2cc(NC(=O)c3cc(F)c(F)cc3Cl)[nH]n2)cc1 (stereo not shown) [Example 6-17]
- inhibition at 0.1 µM ([1]; figure in brackets (100), read-out: IC50: % value given with (100)): 9.8%
- vivo (hypoglycemic effect) (db/db mice): +

SMILES: Cl.O=C(NCc1ccncc1)c1cc(NC(=O)c2cc(F)c(F)cc2Cl)[nH]n1 [Example 3-21]
- IC50 [1, 2]: < 100 nM
- vivo (hypoglycemic effect in db/db mice) (db/db mice): ++

SMILES: O=C(NCc1ccc(F)nc1)c1cc(NC(=O)c2cc(F)c(F)cc2Cl)[nH]n1 [Example 2-13]
- IC50 [1, 2]: < 100 nM
- vivo (hypoglycemic effect in db/db mice) (db/db mice): +

SMILES: COc1ccc(CNC(=O)c2cc(NC(=O)c3cc(F)c(F)cc3Cl)[nH]n2)cn1 [Example 1-12]
- IC50 [1, 2]: < 100 nM
- vivo (hypoglycemic effect in db/db mice) (db/db mice; 10 mg/kg): ++

SMILES: COc1ccccc1CNC(=O)c1cc(NC(=O)c2cc(F)c(F)cc2Cl)[nH]n1 [Example 1-66]
- IC50 [1, 2]: < 100 nM
- vivo (hypoglycemic effect in db/db mice) (db/db mice): +

SMILES: COc1ccc(CNC(=O)c2cc(NC(=O)c3cc(F)c(F)cc3Cl)[nH]n2)cn1 [Example 5-1]
- IC50 [1, 2]: < 100 nM
- vivo (hypoglycemic effect in db/db mice) (db/db mice; 10 mg/kg): +

SMILES: O=C(NCc1cccnc1)c1cc(NC(=O)c2cc(F)c(Cl)cc2Cl)[nH]n1 [Example 7-4]
- IC50 [1, 3]: < 100 nM
- vivo (hypoglycemic effect) (db/db mice): ++

SMILES: COCCN(C(=O)c1cc(NC(=O)c2cc(F)c(F)cc2Cl)[nH]n1)c1ccccc1 [Example 4-34]
- IC50 [1, 2]: < 100 nM
- vivo (hypoglycemic effect in db/db mice) (db/db mice): +

SMILES: O=C(O)c1ccc(CNC(=O)c2cc(NC(=O)c3cc(F)c(F)cc3Cl)[nH]n2)cc1 [Example 1-73]
- IC50 [1, 2]: < 100 nM
- vivo (hypoglycemic effect in db/db mice) (db/db mice): +

SMILES: O=C(NCCN1CCOCC1)c1cc(CNC(=O)c2cc(NC(=O)c3cc(F)c(F)cc3Cl)[nH]n2)ccn1 [Example 5-13]
- IC50 [1, 2]: < 100 nM
- vivo (hypoglycemic effect in db/db mice) (db/db mice): +

SMILES: COc1cccc(OC)c1CNC(=O)c1cc(NC(=O)c2cc(F)c(F)cc2Cl)[nH]n1 [Example 1-15]
- IC50 [1, 2]: < 100 nM
- vivo (hypoglycemic effect in db/db mice) (db/db mice): +

SMILES: COc1ccnc(CNC(=O)c2cc(NC(=O)c3cc(F)c(F)cc3Cl)[nH]n2)c1OC [Example 1-59]
- IC50 [1, 2]: < 100 nM
- vivo (hypoglycemic effect in db/db mice) (db/db mice): ++

SMILES: COCCN(C(=O)c1cc(NC(=O)c2cc(F)c(F)cc2Cl)[nH]n1)C1CCCC1 [Example 1-98]
- IC50 [1, 2]: < 100 nM
- vivo (hypoglycemic effect in db/db mice) (db/db mice): +

SMILES: O=C(NCc1ccnc(C(=O)NN2CCOCC2)c1)c1cc(NC(=O)c2cc(F)c(F)cc2Cl)[nH]n1 [Example 5-14]
- IC50 [1, 2]: < 100 nM
- vivo (hypoglycemic effect in db/db mice) (db/db mice): +

SMILES: O=C(NCc1cccs1)c1cc(NC(=O)c2cc(F)c(F)cc2Cl)[nH]n1 [Example 3-26]
- IC50 [1, 2]: < 100 nM
- vivo (hypoglycemic effect in db/db mice) (db/db mice): +

SMILES: Cc1cc(F)c(F)cc1C(=O)Nc1cc(C(=O)NCc2cccnc2)n[nH]1 [Example 7-10]
- IC50 [1, 3]: < 100 nM
- vivo (hypoglycemic effect) (db/db mice): ++

SMILES: Cc1ncsc1CNC(=O)c1cc(NC(=O)c2cc(F)c(F)cc2Cl)[nH]n1.Cl [Example 5-32]
- IC50 [1, 2]: < 100 nM
- vivo (hypoglycemic effect in db/db mice) (db/db mice): +

SMILES: COc1cc(C)ncc1CNC(=O)c1cc(NC(=O)c2cc(F)c(F)cc2Cl)[nH]n1 [Example 2-6, 5-(2-chloro-4,5-difluoro-benzoylamino)-1H-pyrazole-3-carboxylic acid (4-methoxy-6-methyl-pyridin-3-ylmethyl)-amide]
- IC50 [1, 2]: < 100 nM
- vivo (hypoglycemic effect in db/db mice) (db/db mice): ++

SMILES: CCOCCN(C(=O)c1cc(NC(=O)c2cc(F)c(F)cc2Cl)[nH]n1)C1CCCCC1 [Example 1-100]
- IC50 [1, 2]: < 100 nM
- vivo (hypoglycemic effect in db/db mice) (db/db mice): +

SMILES: O=C(NCc1nc2ccccc2s1)c1cc(NC(=O)c2cc(F)c(F)cc2Cl)[nH]n1 [Example 1-52]
- IC50 [1, 2]: < 100 nM
- vivo (hypoglycemic effect in db/db mice) (db/db mice): +

SMILES: CN(C)C=Nc1ccccc1CNC(=O)c1cc(NC(=O)c2cc(F)c(F)cc2Cl)[nH]n1.Cl [Example 6-21]
- IC50 [1, 3]: < 100 nM
- vivo (hypoglycemic effect) (db/db mice): ++

SMILES: COC(=O)c1ccc(CNC(=O)c2cc(NC(=O)c3cc(F)c(F)cc3Cl)[nH]n2)cc1 [Example 1-72]
- IC50 [1, 2]: < 100 nM
- vivo (hypoglycemic effect in db/db mice) (db/db mice): +

SMILES: CCCCN(C(=O)c1cc(NC(=O)c2cc(F)c(F)cc2Cl)[nH]n1)c1ccc(C(=O)O)cc1 [Example 4-41]
- IC50 [1, 2]: < 100 nM
- vivo (hypoglycemic effect in db/db mice) (db/db mice): +

SMILES: O=C(NCc1ccc(F)cc1)c1cc(NC(=O)c2cc(F)c(F)cc2Cl)[nH]n1 [Example 1-70]
- IC50 [1, 2]: < 100 nM
- vivo (hypoglycemic effect in db/db mice) (db/db mice): ++

SMILES: CN(C(=O)c1cc(NC(=O)c2cc(F)c(F)cc2Cl)[nH]n1)c1ccccc1 [Example 3-4]
- IC50 [1, 2]: 100 to 300 nM
- vivo (hypoglycemic effect in db/db mice) (db/db mice): +

SMILES: Cc1cccc(C)c1CNC(=O)c1cc(NC(=O)c2cc(F)c(F)cc2Cl)[nH]n1 [Example 1-40]
- IC50 [1, 2]: < 100 nM
- vivo (hypoglycemic effect in db/db mice) (db/db mice): +

SMILES: O=C(NCc1ccc(F)cc1F)c1cc(NC(=O)c2cc(F)c(F)cc2Cl)[nH]n1 [Example 1-19]
- IC50 [1, 2]: < 100 nM
- vivo (hypoglycemic effect in db/db mice) (db/db mice): +

Source: patent US20070032529A1, “Pyrazole compounds and their use as antidiabetes agents” (Japan Tobacco Inc., priority 2005, published 2007)
